How the values were obtained:
[1] = Inhibition of human […] G1202R mutant using Casein as substrate incubated for 120 mins in presence of [gamma-33P]-ATP
[2] = target: T1, Proto-oncogene tyrosine-protein kinase ROS (Homo sapiens, UniProt P08922, G2032R); experiment: Inhibition of human ROS1 G2032R mutant using KKKSPGEYVNIEFG as substrate incubated for 120 mins in presence of [gamma-33P]-ATP
[3] = target: T2, Proto-oncogene tyrosine-protein kinase ROS (Homo sapiens, UniProt P08922); experiment: Inhibition of human ROS1 using KKKSPGEYVNIEFG as substrate incubated for 120 mins in presence of [gamma-33P]-ATP
[4] = target: T3, TGF-beta receptor type-1 (Homo sapiens, UniProt P36897); experiment: Inhibition of human […] using Casein as substrate incubated for 120 mins in presence of [gamma-33P]-ATP
T3 sequence (P36897 whole entry): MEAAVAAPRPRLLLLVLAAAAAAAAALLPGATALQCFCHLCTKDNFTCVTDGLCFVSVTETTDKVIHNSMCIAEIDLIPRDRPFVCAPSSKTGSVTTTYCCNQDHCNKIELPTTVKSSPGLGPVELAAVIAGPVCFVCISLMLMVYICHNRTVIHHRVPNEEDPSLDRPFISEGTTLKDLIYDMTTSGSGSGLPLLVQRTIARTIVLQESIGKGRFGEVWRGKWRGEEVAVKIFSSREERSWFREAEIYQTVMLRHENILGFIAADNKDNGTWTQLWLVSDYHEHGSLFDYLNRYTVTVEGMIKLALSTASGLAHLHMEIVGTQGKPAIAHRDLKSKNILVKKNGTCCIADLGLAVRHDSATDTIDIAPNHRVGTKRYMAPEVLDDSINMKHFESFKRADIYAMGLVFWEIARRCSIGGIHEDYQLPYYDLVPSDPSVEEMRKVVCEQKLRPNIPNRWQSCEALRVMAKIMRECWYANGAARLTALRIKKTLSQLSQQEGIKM

[5] = target: T2, Proto-oncogene tyrosine-protein kinase ROS; experiment: Inhibition of ROS1 (unknown origin) incubated for 1 hr by HTRF assay
[6] = target: T4, ALK tyrosine kinase receptor (Homo sapiens, UniProt Q9UM73); experiment: Inhibition of ALK (unknown origin) incubated for 1 hr by HTRF assay
[7] = system: HCC78; experiment: Cytotoxicity against human HCC78 cells incubated for 72 hrs by MTT assay; type: functional, cell-based
[8] = system: NCI-H2228; experiment: Cytotoxicity against human NCI-H2228 cells incubated for 72 hrs by MTT assay; type: functional, cell-based; conditions: NCI-H2228, 72 h
[9] = target: T1, Proto-oncogene tyrosine-protein kinase ROS; experiment: Inhibition of recombinant human ROS1 G2032R mutant preincubated for 5 to 10 mins followed by substrate and ATP addition and measured after 60 mins by TR-FRET assay
[10] = target: T4, ALK tyrosine kinase receptor; experiment: Inhibition of human ALK preincubated for 5 to 10 mins followed by substrate and ATP addition and measured after 60 mins by TR-FRET assay
[11] = target: ALK tyrosine kinase receptor (Homo sapiens, UniProt Q9UM73, G1202R/L1196M); experiment: Inhibition of human ALK L1196M/G1202R double mutant preincubated for 5 to 10 mins followed by substrate and ATP addition and measured after 60 mins by TR-FRET assay
[12] = target: T2, Proto-oncogene tyrosine-protein kinase ROS; experiment: Inhibition of recombinant human ROS1 preincubated for 5 to 10 mins followed by substrate and ATP addition and measured after 60 mins by TR-FRET assay
[13] = target: T4, ALK tyrosine kinase receptor; experiment: Inhibition of wild-type ALK (unknown origin)
[14] = system: BaF3; experiment: Antitumor activity against mouse BaF3 cells harboring EML4 ALK V1 G1202R mutant assessed as tumor growth inhibition at 2.2 nM; type: functional; parameters: scale not given: the % may be the effect or the level left
[15] = system: BaF3; experiment: Antitumor activity against mouse BaF3 cells harboring wild type ROS1 assessed as tumor growth inhibition at 2.2 nM; type: functional; parameters: scale not given: the % may be the effect or the level left
[16] = system: BaF3; experiment: Antitumor activity against mouse BaF3 cells harboring ROS1 G2032 mutant assessed as tumor growth inhibition at 2.2 nM; type: functional; parameters: scale not given: the % may be the effect or the level left
[17] = target: T2, Proto-oncogene tyrosine-protein kinase ROS; experiment: Inhibition of wild type ROS1 (unknown origin) expressed in BaF3 cells incubated for 4 hrs; type: cell-based
[18] = target: T4, ALK tyrosine kinase receptor; experiment: Inhibition of wild type ALK (unknown origin) expressed in BaF3 cells incubated for 4 hrs; type: cell-based

T2 sequence (P08922 whole entry): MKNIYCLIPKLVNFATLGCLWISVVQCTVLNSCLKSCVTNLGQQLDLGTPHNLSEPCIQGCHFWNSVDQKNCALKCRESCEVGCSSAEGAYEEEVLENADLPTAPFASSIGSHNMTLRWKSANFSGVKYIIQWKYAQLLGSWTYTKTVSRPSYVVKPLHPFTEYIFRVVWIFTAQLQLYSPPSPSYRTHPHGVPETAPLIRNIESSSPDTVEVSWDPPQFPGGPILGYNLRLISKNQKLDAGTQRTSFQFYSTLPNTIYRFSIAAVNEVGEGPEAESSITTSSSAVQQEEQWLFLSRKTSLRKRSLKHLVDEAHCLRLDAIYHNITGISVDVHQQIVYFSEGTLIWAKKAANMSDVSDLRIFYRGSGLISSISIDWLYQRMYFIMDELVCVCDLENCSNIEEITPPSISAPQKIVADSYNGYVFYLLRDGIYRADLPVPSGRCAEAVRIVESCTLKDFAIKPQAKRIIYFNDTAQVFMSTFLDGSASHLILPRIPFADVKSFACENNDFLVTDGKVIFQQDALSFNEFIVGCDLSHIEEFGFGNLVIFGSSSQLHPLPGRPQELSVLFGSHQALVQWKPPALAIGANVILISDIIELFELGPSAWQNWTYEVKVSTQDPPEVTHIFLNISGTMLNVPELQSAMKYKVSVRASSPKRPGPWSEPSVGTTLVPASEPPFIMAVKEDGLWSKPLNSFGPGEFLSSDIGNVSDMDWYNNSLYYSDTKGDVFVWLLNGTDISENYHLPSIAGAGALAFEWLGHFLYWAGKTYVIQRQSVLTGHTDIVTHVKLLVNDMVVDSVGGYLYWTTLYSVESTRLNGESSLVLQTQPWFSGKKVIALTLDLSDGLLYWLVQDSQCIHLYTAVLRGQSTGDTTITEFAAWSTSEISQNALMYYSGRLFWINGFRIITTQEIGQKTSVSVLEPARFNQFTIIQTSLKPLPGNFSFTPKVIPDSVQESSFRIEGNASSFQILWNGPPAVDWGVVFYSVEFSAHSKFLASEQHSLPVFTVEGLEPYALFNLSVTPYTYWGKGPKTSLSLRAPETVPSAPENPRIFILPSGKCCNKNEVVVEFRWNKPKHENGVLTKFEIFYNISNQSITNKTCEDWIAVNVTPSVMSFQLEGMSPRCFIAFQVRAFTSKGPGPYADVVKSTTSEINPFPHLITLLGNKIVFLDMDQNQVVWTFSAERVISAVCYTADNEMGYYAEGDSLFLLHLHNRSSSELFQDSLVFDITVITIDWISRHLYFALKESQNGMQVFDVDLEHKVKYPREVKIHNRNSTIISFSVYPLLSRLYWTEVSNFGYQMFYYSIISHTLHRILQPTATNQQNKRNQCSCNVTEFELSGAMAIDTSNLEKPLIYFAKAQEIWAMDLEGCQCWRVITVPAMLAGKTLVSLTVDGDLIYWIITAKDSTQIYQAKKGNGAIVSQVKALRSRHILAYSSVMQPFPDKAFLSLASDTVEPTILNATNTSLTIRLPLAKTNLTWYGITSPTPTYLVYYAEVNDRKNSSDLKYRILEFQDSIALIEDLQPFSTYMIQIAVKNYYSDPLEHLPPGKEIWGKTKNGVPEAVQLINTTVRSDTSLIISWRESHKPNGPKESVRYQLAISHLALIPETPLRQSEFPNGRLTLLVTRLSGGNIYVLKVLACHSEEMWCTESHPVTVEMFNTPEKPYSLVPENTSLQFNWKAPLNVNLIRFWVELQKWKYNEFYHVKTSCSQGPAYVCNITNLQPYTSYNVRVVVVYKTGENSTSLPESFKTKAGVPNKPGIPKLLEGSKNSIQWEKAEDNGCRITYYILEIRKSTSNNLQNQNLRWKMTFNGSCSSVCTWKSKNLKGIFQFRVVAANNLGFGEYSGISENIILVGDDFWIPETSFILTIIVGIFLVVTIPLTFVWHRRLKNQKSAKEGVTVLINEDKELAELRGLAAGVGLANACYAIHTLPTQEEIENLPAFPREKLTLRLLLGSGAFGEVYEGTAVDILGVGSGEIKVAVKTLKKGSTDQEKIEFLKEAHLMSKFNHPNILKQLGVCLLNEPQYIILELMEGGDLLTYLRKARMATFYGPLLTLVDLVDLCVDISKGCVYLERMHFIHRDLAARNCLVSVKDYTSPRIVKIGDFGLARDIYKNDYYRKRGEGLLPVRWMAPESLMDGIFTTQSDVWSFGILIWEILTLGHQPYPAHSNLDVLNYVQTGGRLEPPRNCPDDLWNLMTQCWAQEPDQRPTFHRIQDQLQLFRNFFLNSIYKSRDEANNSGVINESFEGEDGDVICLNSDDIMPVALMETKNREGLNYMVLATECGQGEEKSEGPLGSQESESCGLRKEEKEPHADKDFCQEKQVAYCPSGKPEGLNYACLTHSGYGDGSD
T1 sequence (P08922 28-2347 G2032R limits assumed): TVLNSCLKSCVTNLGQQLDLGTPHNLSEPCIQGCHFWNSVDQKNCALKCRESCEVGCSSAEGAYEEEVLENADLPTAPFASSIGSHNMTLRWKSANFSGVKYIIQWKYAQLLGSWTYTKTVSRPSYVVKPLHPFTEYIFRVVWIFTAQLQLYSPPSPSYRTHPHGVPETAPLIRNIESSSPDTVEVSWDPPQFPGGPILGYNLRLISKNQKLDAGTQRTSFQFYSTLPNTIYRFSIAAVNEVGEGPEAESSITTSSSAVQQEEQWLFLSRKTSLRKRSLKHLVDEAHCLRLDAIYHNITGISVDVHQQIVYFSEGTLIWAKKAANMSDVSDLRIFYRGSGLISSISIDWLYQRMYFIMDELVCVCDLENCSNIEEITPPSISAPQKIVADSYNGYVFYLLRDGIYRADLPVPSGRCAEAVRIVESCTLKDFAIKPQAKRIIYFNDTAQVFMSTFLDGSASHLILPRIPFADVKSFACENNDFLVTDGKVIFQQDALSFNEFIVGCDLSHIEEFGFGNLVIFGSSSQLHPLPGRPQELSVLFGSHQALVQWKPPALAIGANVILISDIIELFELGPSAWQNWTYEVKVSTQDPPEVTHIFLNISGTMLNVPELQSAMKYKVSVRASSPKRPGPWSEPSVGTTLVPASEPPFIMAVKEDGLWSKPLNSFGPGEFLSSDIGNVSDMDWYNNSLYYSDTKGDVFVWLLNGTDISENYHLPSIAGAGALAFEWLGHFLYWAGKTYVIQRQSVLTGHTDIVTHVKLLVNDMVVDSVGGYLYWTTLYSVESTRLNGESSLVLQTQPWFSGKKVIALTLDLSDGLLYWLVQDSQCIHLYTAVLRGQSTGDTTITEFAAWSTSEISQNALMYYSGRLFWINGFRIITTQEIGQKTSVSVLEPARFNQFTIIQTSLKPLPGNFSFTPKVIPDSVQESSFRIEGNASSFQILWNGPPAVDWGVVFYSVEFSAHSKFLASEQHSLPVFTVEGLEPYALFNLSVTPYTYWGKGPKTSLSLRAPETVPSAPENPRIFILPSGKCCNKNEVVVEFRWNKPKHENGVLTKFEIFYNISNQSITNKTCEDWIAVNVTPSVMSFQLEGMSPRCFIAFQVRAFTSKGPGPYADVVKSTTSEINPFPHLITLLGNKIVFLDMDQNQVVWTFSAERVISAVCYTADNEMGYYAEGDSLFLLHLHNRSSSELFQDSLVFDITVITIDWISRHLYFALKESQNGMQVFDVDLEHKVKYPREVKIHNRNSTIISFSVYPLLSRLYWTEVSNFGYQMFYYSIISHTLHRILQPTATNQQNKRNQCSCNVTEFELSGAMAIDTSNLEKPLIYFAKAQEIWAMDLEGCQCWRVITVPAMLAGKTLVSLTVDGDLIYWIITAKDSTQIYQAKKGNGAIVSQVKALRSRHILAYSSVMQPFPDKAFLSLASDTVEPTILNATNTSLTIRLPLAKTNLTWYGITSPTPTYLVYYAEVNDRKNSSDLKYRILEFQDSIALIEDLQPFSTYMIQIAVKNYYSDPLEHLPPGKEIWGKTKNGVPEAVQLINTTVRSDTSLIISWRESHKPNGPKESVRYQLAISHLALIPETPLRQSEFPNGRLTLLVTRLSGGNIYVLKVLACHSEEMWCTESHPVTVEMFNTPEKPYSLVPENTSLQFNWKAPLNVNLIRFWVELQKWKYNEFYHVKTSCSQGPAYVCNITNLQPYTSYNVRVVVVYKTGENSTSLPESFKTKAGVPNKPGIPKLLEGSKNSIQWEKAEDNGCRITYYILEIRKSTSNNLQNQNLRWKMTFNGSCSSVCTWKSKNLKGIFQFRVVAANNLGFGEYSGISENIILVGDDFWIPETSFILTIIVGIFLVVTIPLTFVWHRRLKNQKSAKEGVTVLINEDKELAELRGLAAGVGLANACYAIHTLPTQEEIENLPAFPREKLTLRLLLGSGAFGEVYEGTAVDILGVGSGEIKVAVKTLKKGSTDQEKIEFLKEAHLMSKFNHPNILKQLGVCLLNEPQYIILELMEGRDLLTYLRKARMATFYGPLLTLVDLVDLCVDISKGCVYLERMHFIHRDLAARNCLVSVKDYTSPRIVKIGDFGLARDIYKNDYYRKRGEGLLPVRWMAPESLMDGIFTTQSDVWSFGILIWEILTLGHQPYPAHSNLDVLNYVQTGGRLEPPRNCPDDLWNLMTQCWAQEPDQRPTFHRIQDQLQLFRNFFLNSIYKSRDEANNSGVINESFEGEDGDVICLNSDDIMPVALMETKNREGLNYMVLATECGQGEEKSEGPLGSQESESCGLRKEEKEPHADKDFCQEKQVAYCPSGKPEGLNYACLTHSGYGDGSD

`CC(C)Oc1ccc(F)cc1[C@@H](C)Nc1ccn2ncc(C3=NOC(C)N3)c2n1` (some centres not stated) showed an IC50 [1] of under 50 nM, an IC50 [2] of under 0.5 nM and an IC50 [3] of under 0.5 nM. It also gave an IC50 [4] of under 50 nM.

Compound `COc1cc(-n2cccc2CN2CCN(C)CC2)ccc1Nc1ncc(Cl)c(Nc2ccccc2NS(C)(=O)=O)n1` has an IC50 [5] of 3.6 nM and an IC50 [6] of 1.8 nM.

Compound `COc1ccc(CNC(=O)Cn2nc(-c3ccccc3)c3cnc4ccccc4c32)cc1` has an IC50 ([7]; Homo sapiens, HCC78, 72 h) of 1620 nM, an IC50 ([7]; hcc78) of 1610 nM and an IC50 [8] of 2710 nM.

In the case of `C[C@H]1Nc2ccn3ncc(c3n2)C(=O)N[C@@]2(C)CC3=CC(F)=CC1C3O2` (some centres not stated), the IC50 [9] is reported as 0.34 nM, the IC50 [10] is reported as 2.02 nM and the IC50 [11] is reported as 20.7 nM. The IC50 [12] was 0.84 nM.

Work on `O=C(Nc1n[nH]c2ncc(S(=O)(=O)c3cccc(F)c3)cc12)c1ccc(N2CCOCC2)cc1` yielded an IC50 [13] of 0.6 nM.

Work on `C[C@H]1CNC(=O)c2cnn3ccc(nc23)N[C@H](C)c2cc(F)ccc2O1` [REPOTRECTINIB] yielded an Activity [14] of 99%, an Activity [15] of 197% and an Activity [16] of 99%.

`C[C@H]1Nc2ccn3ncc(c3n2)C(=O)NC[C@@H](CF)Oc2ccc(F)cc21` showed an IC50 [17] of 2 nM and an IC50 [18] of 2 nM.

With `COc1ccc(F)cc1[C@@H](C)Nc1ccn2ncc(C3=NOC(C)(C)N3)c2n1` the IC50 [1] was under 50 nM, the IC50 [2] was under 0.5 nM and the IC50 [3] was under 0.5 nM. The IC50 [4] was under 50 nM.

For `CCOc1ccc(F)cc1[C@@H](C)Nc1ccn2ncc(C3=NOC(C)N3)c2n1` (some centres not stated), the IC50 [1] was under 50 nM, the IC50 [2] was under 0.5 nM and the IC50 [3] was under 0.5 nM. The IC50 [4] was under 50 nM.

Source: ChEMBL document CHEMBL5620350, “Recent advances in the development of dual ALK/ROS1 inhibitors for non-small cell lung cancer therapy” (Eur J Med Chem, 2023)
